Key:
[1] = Safety and tolerability, single-dose cohorts; format: in vivo, human
Method: Adverse events and concomitant medications were recorded. Laboratory samples for clinical chemistry, hematology, coagulation tests, and urinalysis were collected under fasted conditions. Participants who discontinued prematurely attended an early termination visit.
For the safety analysis, adverse events were coded using the Medical Dictionary for Regulatory Activities (MedDRA® Version 20.0). Adverse events were grouped by preferred terms. Treatment-emergent adverse events (TEAEs) were summarized with descriptive statistics.

SST2 = test system: SST2; design: method as in ref 13 = [13]; 13. Betz SF Markison S Kusnetzow AK Athanacio JD Rico-Bautista E Madan A Suppression of growth hormone and insulin-like growth factor 1 in rats after oral administration of CRN00808, a small molecule; settings: cited from earlier work
[2] = design: method as in ref 14 = [14]; 14. Madan A, Juo R, Ferrara-Cook C, Struthers RS, van Marle S, Krasner A (2020) Absorption, metabolism, excretion and absolute oral bioavailability [ 14 C]-CRN00808, an orally bioavailable, nonpeptide; settings: cited from earlier work
serum IGF-1 = assay: Serum IGF-1 suppression in healthy volunteers; format: in vivo, human
Method: For assessment of serum IGF-1, in the single-dose cohorts, serum IGF-1 was collected on Day - 1 and Day 1 (pre-dose to 18 h post-dose), and Day 2 and 7 (at approximately the same time GHRH was administered on Day 1). In the M1 cohort, IGF-1 samples were obtained pre-dose, 6 and 12 h post-dose on Days - 1, 1 and 7; pre-dose and 12 h post-dose on Days 2–6; and at approximately the same time as dosing on Days 8, 10, and 14. For M2 and subsequent cohorts, IGF-1 samples were obtained pre-dose, 6 and 12 h post-dose on Days - 1, 1 and 10; pre-dose and 12 h post-dose on Days 2–9; and at approximately the same time as dosing on Days 11, 14, and 21.
Serum was isolated, stored, and analyzed for IGF-1 and GH according to the instructions from the manufacturer (IGF-1 and human GH diagnostic assay, Siemens Immulite® 1000 systems).
The study endpoints were effects of paltusotine on GHRH-stimulated GH and IGF-1 (pharmacodynamics), pharmacokinetics (including formulation and food effects), safety, and tolerability. For the analysis of effects paltusotine on GHRH-stimulated GH and IGF-1, the pharmacodynamic population included all randomized participants in the 1.25 mg, 2.5 mg, 5 mg, 10 mg, and 20 mg (S1, S2, S3, S4A, and S5) single-dose cohorts who received any amount of study drug and had at least one post-baseline pharmacodynamic assessment. The percent change in serum GH area under the curve (AUC) from 0 to 2 h (AUC0-2) from baseline was compared using ANOVA between each dosing cohort and all participants who received placebo. The single-dose pharmacodynamic population included 39 participants from the S1, S2, S3, S4, and S5 cohorts (paltusotine n = 29; placebo n = 10). […] For multiple-dose cohorts, only participants who received all doses were included. A change in IGF-1 levels 12 h post last dose from baseline (average of 3–4 measurements) were compared by ANOVA between each dosing cohort and all participants who received placebo. The multiple-dose pharmacodynamic population included 31 participants from the M1, M2, M3, and M4 cohorts (paltusotine n = 21; placebo n = 10).

[3] = single-dosing, safety population N = 41

Cl.N#Cc1cccc(-c2ccc3ncc(-c4cc(F)cc(F)c4)c(N4CCC(N)CC4)c3c2)c1O [paltusotine, 3-[4-(4-Aminopiperidin-1-yl)-3-(3,5-difluorophenyl)quinolin-6-yl]-2-hydroxybenzonitrile hydrochloride]
life-threatening events or deaths ([1]; all cohorts): No life-threatening events or deaths occurred
tolerability ([1]; single-dose administration): well tolerated
share of TEAEs occurring at a dose level of 10 mg or higher ([1]; single-dose cohorts): 64%
Abdominal distension (TEAE) [1, 3]: 2 (4.9%) n (%)
Abdominal pain (TEAE) [1, 3]: 2 (4.9%) n (%)
Abdominal pain upper (TEAE) [1, 3]: 2 (4.9%) n (%)
Back pain (TEAE) [1, 3]: 2 (4.9%) n (%)
Fatigue (TEAE) [1, 3]: 2 (4.9%) n (%)
Headache (TEAE) [1, 3]: 5 n (%)
Hypoesthesia (TEAE) [1, 3]: 2 (4.9%) n (%)
Nausea (TEAE) [1, 3]: 2 (4.9%) n (%)
Participants with at least 1 TEAE [1, 3]: 28 (68.3%) n (%)
Tension headache (TEAE) [1, 3]: 2 (4.9%) n (%)
Ventricular tachycardia (non-sustained) (TEAE) [1, 3]: 2 (4.9%) n (%)
Headache (TEAE) ([1]; single-dosing, safety population N = 41, listed as Paltusotine): 5 (12.2%) n (%)
selectivity for SST2 over other somatostatin receptor subtypes (SST2): > 4000 fold
EC50 (SST2; read-out: SST2 agonist EC50): 0.25 nM
oral bioavailability in animals [2]: high oral bioavailability
IGF-1 suppression (serum IGF-1; 5 mg once daily, Day 7, relative to baseline): 19%
additional time IGF-1 remained suppressed after the final dose (serum IGF-1; 10 mg cohort, final dose on Day 10): 4 days
IGF-1 suppression (serum IGF-1; 10 mg once daily, Day 10, relative to baseline): 37%
IGF-1 suppression (serum IGF-1; 20 mg once daily, Day 10, relative to baseline): 37%
IGF-1 suppression (serum IGF-1; 30 mg once daily, Day 10, relative to baseline): 30%
maximal degree of IGF-1 suppression (serum IGF-1; multiple-dose cohorts): up to 37%
time to near-maximum IGF-1 suppression (serum IGF-1; once-daily dosing (10 mg cohort illustrated)): approximately 7 days
serum IGF-1 change after a single dose (serum IGF-1; single 1.25 to 20 mg dose, compared to Day -1 or placebo): little to no change

From paper PMC8894159, “Paltusotine, a novel oral once-daily nonpeptide SST2 receptor agonist, suppresses GH and IGF-1 in healthy volunteers” (Pituitary, 2022)
